Laboratory results: article PMC8205226, “HIV-1 Integrase Inhibitors with Modifications That Affect Their Potencies against Drug Resistant Integrase Mutants” (ACS Infectious Diseases, 2021)

Columns and labels:
HIV-1 IN mutant P142A = assay: single-round infectivity assay, P142A IN mutant; format: cell-based
Method: (§1) Figure 4 Mutations in the β5-α3 loop affect the antiviral potencies of the new compounds. The EC50 values were determined using a vector that carries the IN mutant in a single round infection assay. […] Error bars represent the standard deviations of independent experiments, n = 4, performed in triplicate.
(§2) WT and mutant HIV-1 viral vectors were used in single-round infectivity assays to determine the antiviral potencies (EC50 values) of the compounds and the effects of the mutants on the EC50 values as previously described.[30],[54] Single round infectivity measurements were determined as done previously.[38]
(§3) The vector pNLNgoMIVR-ΔENV.LUC has been described previously.[26] To produce the new IN mutants used in this study, the IN open reading frame was removed from pNLNgoMIVR-ΔENV.LUC by digestion with KpnI and SalI, and the resulting fragment was inserted between the KpnI and SalI sites of pBluescript KS+. Using that construct as the wild-type template, we prepared the following HIV-1 IN mutants using the QuikChange II XL site directed mutagenesis kit (Agilent Technologies, Santa Clara, CA) protocol: N117A, N117H, P142A, P142H, P142S, Y143C, Y143H, S230R, R231G, and R231K. The following sense oligonucleotides were used with matching cognate antisense oligonucleotides (not shown) (Integrated DNA Technologies, Coralville, IA) in the mutagenesis: N117A, 5′-[…]-3′; N117H, 5′-[…]-3′; P142A, 5′-[…]-3′; P142H, 5′-[…]-3′; P142S, 5′-[…]-3′; Y143C, 5′- […]-3′; Y143H, 5′-[…]-3′; S230R, 5′- […]-3′; R231G, 5′-[…]-3′; R231K, 5′-[…]-3′.

[1] = test system: HIV-1 IN double mutant G140S/Q148H; conditions: single round infection; previously reported; cited from earlier work
HIV-1 IN mutant R231K = assay: single-round infectivity assay, R231K IN mutant; format: cell-based
Method: as §1, with “5 Antiviral” for “4 Mutations in the β5-α3 loop affect the antiviral”, “compounds against IN with mutations in the […].” for “compounds.”
as §2, §3

HIV-1 IN mutant S230R = assay: single-round infectivity assay, S230R IN mutant; format: cell-based
Method: as §1, with “5 Antiviral” for “4 Mutations in the β5-α3 loop affect the antiviral”, “compounds against IN with mutations in the […].” for “compounds.”
as §2, §3

HIV-1 IN mutant P142S = assay: single-round infectivity assay, P142S IN mutant; format: cell-based
Method: as §1, §2, §3

HIV-1 IN mutant G118R = assay: single-round infectivity assay, G118R IN mutant; format: cell-based
Method: (§4) The EC50 values were determined using a vector that carries the IN mutant in a single round infection assay. […] Error bars represent the standard deviations of independent experiments, n = 4, performed in triplicate.
as §2, §3

[2] = test system: HIV-1 IN double mutant G140S/Q148H; assay: single-round infectivity assay, G140S/Q148H IN double mutant; format: cell-based
Method: (§5) Figure 2 Antiviral activities of the new compounds against RAL-resistant mutants. The EC50 values were determined using a vector that carries WT HIV-1 IN and the RAL-resistant mutants in a single round infection assay. […] Error bars represent the standard deviations of independent experiments, n = 4, performed in triplicate. The graph has a maximum value of 550 nM.
as §2, §3

HIV-1 IN mutant P142H = assay: single-round infectivity assay, P142H IN mutant; format: cell-based
Method: as §4
Single round infectivity measurements were determined as done previously.[38]
as §3

HIV-1 IN mutant Y143R [3] = assay: single-round infectivity assay, Y143R IN mutant; format: cell-based
Method: as §5, §2, §3

HIV-1 IN mutant Y143H = assay: single-round infectivity assay, Y143H IN mutant; format: cell-based
Method: as §1, §2, §3

HIV-1 IN mutant S119R = assay: single-round infectivity assay, S119R IN mutant; format: cell-based
Method: as §4, §2, §3

HIV-1 IN mutant N117H = assay: single-round infectivity assay, N117H IN mutant; format: cell-based
Method: as §4, §2, §3

WT HIV-1 = conditions: vector carrying WT HIV-1 IN, single round infection; previously reported; cited from earlier work
HIV-1 IN mutant N117A = assay: single-round infectivity assay, N117A IN mutant; format: cell-based
Method: as §4, §2, §3

HIV-1 IN mutant Y143R [4] = conditions: single round infection; previously reported; cited from earlier work
HIV-1 IN mutant Y143C = assay: single-round infectivity assay, Y143C IN mutant; format: cell-based
Method: as §1, §2, §3

HIV-1 IN mutant N155H [5] = conditions: single round infection; previously reported; cited from earlier work
HIV-1 IN mutant R231G = assay: single-round infectivity assay, R231G IN mutant; format: cell-based
Method: as §4, with “Figure 5 Antiviral potencies of the new compounds against IN with mutations in the […]. The” for “The”
as §2, §3

HIV-1 IN mutant N155H [6] = assay: single-round infectivity assay, N155H IN mutant; format: cell-based
Method: as §5, §2, §3

[7] = fold change in EC50, IN mutant versus WT HIV-1

COC(=O)CNc1c(C(=O)NCc2ccc(F)cc2F)c(=O)n(O)c2ncccc12 [5′g]
ratio of the EC50s (our compound relative to DTG) against P142A (HIV-1 IN mutant P142A; EC50 compound / EC50 DTG): 5.6
EC50 (HIV-1 IN mutant P142A; Human immunodeficiency virus 1, read-out: EC50 values P142A): 14.1 ± 0.3 nM
FC P142A (HIV-1 IN mutant P142A; [7]): 3.7
EC50 [1]: 35.5 ± 15.9 nM
ratio of the EC50s (our compound relative to DTG) against R231K (HIV-1 IN mutant R231K; EC50 compound / EC50 DTG): 2.2
EC50 (HIV-1 IN mutant R231K; Human immunodeficiency virus 1, read-out: EC50 values R231K, single round infection, n = 4): 9.2 ± 2.1 nM
FC R231K (HIV-1 IN mutant R231K; [7]): 2.4
ratio of the EC50s (our compound relative to DTG) against S230R (HIV-1 IN mutant S230R; EC50 compound / EC50 DTG): 1.0
EC50 (HIV-1 IN mutant S230R; Human immunodeficiency virus 1, read-out: EC50 values S230R): 4.5 ± 1.5 nM
FC S230R (HIV-1 IN mutant S230R; [7]): 1.2
ratio of the EC50s (our compound relative to DTG) against P142S (HIV-1 IN mutant P142S; EC50 compound / EC50 DTG): 12.4
EC50 (HIV-1 IN mutant P142S; Human immunodeficiency virus 1, read-out: EC50 values P142S): 27.2 ± 4.4 nM
FC P142S (HIV-1 IN mutant P142S; [7]): 7.2
ratio of the EC50s (our compound relative to DTG) against G118R (HIV-1 IN mutant G118R; EC50 compound / EC50 DTG): 13.1
EC50 (HIV-1 IN mutant G118R; Human immunodeficiency virus 1, read-out: EC50 values G118R): 171 ± 3.2 nM
ratio of the EC50s (our compound relative to DTG) against G140S/Q148H ([2]; EC50 compound / EC50 DTG): 6.1
FC G140S/Q148H [2, 7]: 9.3
ratio of the EC50s (our compound relative to DTG) against P142H (HIV-1 IN mutant P142H; EC50 compound / EC50 DTG): 4.6
EC50 (HIV-1 IN mutant P142H; Human immunodeficiency virus 1, read-out: EC50 values P142H): 12.8 ± 2.9 nM
FC P142H (HIV-1 IN mutant P142H; [7]): 3.4
ratio of the EC50s (our compound relative to DTG) against Y143R (HIV-1 IN mutant Y143R [3]; EC50 compound / EC50 DTG): 1.1
FC Y143R (HIV-1 IN mutant Y143R [3]; [7]): 1.2
ratio of the EC50s (our compound relative to DTG) against Y143H (HIV-1 IN mutant Y143H; EC50 compound / EC50 DTG): 3.6
EC50 (HIV-1 IN mutant Y143H; Human immunodeficiency virus 1, read-out: EC50 values Y143H, single round infection, n = 4): 7.9 ± 1 nM
FC Y143H (HIV-1 IN mutant Y143H; [7]): 2.1
ratio of the EC50s (our compound relative to DTG) against S119R (HIV-1 IN mutant S119R; EC50 compound / EC50 DTG): 9.7
EC50 (HIV-1 IN mutant S119R; Human immunodeficiency virus 1, read-out: EC50 values S119R): 22.3 ± 1.7 nM
FC S119R (HIV-1 IN mutant S119R; [7]): 5.9
ratio of the EC50s (our compound relative to DTG) against N117H (HIV-1 IN mutant N117H; EC50 compound / EC50 DTG): 2.3
EC50 (HIV-1 IN mutant N117H; Human immunodeficiency virus 1, read-out: EC50 values N117H): 5.6 ± 0.9 nM
FC N117H (HIV-1 IN mutant N117H; [7]): 1.5
EC50 (WT HIV-1): 3.8 ± 1.2 nM
ratio of the EC50s (our compound relative to DTG) against N117A (HIV-1 IN mutant N117A; EC50 compound / EC50 DTG): 2.4
EC50 (HIV-1 IN mutant N117A; Human immunodeficiency virus 1, read-out: EC50 values N117A): 1.2 ± 0.2 nM
FC N117A (HIV-1 IN mutant N117A; [7]): 0.3
EC50 (HIV-1 IN mutant Y143R [4]): 4.6 ± 2.2 nM
ratio of the EC50s (our compound relative to DTG) against Y143C (HIV-1 IN mutant Y143C; EC50 compound / EC50 DTG): 28.1
EC50 (HIV-1 IN mutant Y143C; Human immunodeficiency virus 1, read-out: EC50 values Y143C, single round infection, n = 4): 39.3 ± 7.3 nM
FC Y143C (HIV-1 IN mutant Y143C; [7]): 10.3
EC50 (HIV-1 IN mutant N155H [5]): 19 ± 6.9 nM
ratio of the EC50s (our compound relative to DTG) against R231G (HIV-1 IN mutant R231G; EC50 compound / EC50 DTG): 6.9
EC50 (HIV-1 IN mutant R231G; Human immunodeficiency virus 1, read-out: EC50 values R231G): 9.7 ± 2.4 nM
FC R231G (HIV-1 IN mutant R231G; [7]): 2.6
ratio of the EC50s (our compound relative to DTG) against N155H (HIV-1 IN mutant N155H [6]; EC50 compound / EC50 DTG): 5.3
FC N155H (HIV-1 IN mutant N155H [6]; [7]): 5.0
